Test results reported in paper PMC5641347, “Aii810, a Novel Cold-Adapted N-Acylhomoserine Lactonase Discovered in a Metagenome, Can Strongly Attenuate Pseudomonas aeruginosa Virulence Factors and Biofilm Formation” (Frontiers in Microbiology, 2017).

Test system: T1, Aii810
T1 construct: E. coli BL21(DE3), Ni-NTA
Test: p-nitrophenol release at […] nm, Michaelis-Menten fit
Format: biochemical, uncultured bacterium
Details: 20°C, pH 6.5

CC(=O)Oc1ccc([N+](=O)[O-])cc1 [C2, ρ-nitrophenyl acetate]
Km: 205 µM
